Test [1] deals with Hsp70 protein and Hsp70/Hsp90 client proteins (Akt, Src, and MEK). The test is described as follows: Western blot of Hsp70 and client proteins in lung cancer cells. The test is classed as cell-based, human. The text has this:
Human lung cancer cell lines (H1299, H460, A549, H226B, and PC9), breast cancer cell line (MDA-MB-231), liver cancer cell line (Hep3B), kidney cancer cell line (786-0), prostate cancer cell lines (DU145 and PC-3), and mouse lung cancer cell line (Lewis Lung Carcinoma, LLC) were purchased from ATCC (American Type Culture Collection) or obtained from Dr. John V. Heymach of MD Anderson Cancer Center, USA. The human head and neck cancer cell line (UMSCC38) was obtained from Dr. Jeffrey N. Myers (MD Anderson Cancer Center, USA). Human colon cancer cell lines (HCT116 and HT-29) and glioblastoma cell line (U87MG) were obtained from Professor Sang Kook Lee (Seoul National University College of Pharmacy). The human kidney cancer cell line (Caki-1), and gastric cancer cell line (SNU-638) were purchased from the Korean Cell Line Bank. The chemotherapy-resistant cells [paclitaxel-resistant H460 cells (H460/PcR), paclitaxel-resistant H226B cells (H226B/PcR), cisplatin-resistant H1299 cells (H1299/CsR), pemetrexed-resistant H1299 cells (H1299/PmR)] and molecularly targeted anticancer therapy-resistant cells [erlotinib-resistant PC9 cells (PC9/ER)] were constructed by treating the respective anti-cancer drugs for more than three months. H1299, H460, H226B, PC9, Hep3B, 786-0, DU145, PC-3, HCT116, HT-29, SNU-638, chemotherapeutic resistant cells, and molecularly targeted anticancer therapy-resistant cells were cultured in RPMI 1640 media containing 10% fetal bovine serum (FBS) and antibiotics at 37° C. under 5% CO2 conditions, while MDA-MB-231, UMSCC38, U87MG, Caki-1 were cultured in DMEM media containing 10% FBS and antibiotics at 37° C. under 5% CO2 conditions. Cells were passaged 1-2 times per week.
The cells treated with the drug were treated with RIPA lysis buffer [50 mM Tris-HCl (pH 7.4), 150 mM NaCl, 1 mM EDTA, 0.25% sodium deoxycholate, 1% Triton X-100, 100 mM NaF, 5 mM Na3VO4, 1 mM PMSF, 1 μg/mL aprotinin, 1 μg/mL leupeptin, and 1 μg/mL pepstatin], followed by incubation on ice for 10 minutes and centrifugation at 13,000 rpm for 15 minutes to extract proteins. The proteins were quantified by BCA assay and equal amounts of proteins were separated by 8-10% SDS-PAGE. The separated proteins were transferred to a PVDF membrane, and the areas of the membrane not transferred with protein were blocked by incubating the membrane in 5% skim milk solution or 3% BSA solution diluted in TBST at room temperature for 1 hour. The membrane was then incubated in a primary antibody solution diluted 1:1,000 in 3% BSA at 4° C. for more than 12 hours. The primary antibody used was either anti-Hsp70 or anti-actin, with the anti-Hsp70 antibody obtained from Enzo Life Science and the actin antibody obtained from Santa Cruz Biotechnology. After incubation, the membrane was washed for 1 hour while changing TBST several times, and then incubated for 1 hour at room temperature with a secondary antibody (GeneTex) diluted 1:5,000 in 5% skim milk solution. After incubation, the membrane was washed for 1 hour while changing TBST several times, and then treated with an enhanced chemiluminescence (ECL) solution. The expression of Hsp70 or Actin protein was detected using LAS4000.

For test [2], the system named is lung cancer cell. The test is described as follows: Cancer cell survival inhibitory activity (MTT assay) of EV501 to EV509. The test is classed as cell-based. Particulars: 0.5 μM (lowest concentration), MTT assay (FIG. 18). How it is done: The cancer cell lines were seeded in a 96-well plate at a density of 2×10^3 cells per well and cultured for 24 hours to allow the cells to attach. The cells were then treated with diluted drugs in media for 3 days and cell viability was assessed using MTT assay or crystal violet (CB) assay. For the MTT assay, MTT solution dissolved in PBS was added to achieve a final concentration of 500 μg/mL and incubated for 2-4 hours, after which the medium was removed and the formed formazan was dissolved in 100% DMSO, followed by measuring the absorbance at 570 nm. For the CB assay, the cultured cells were fixed with 100% methanol, stained with a 0.025% crystal violet solution, dissolved in 1% SDS solution, and the absorbance was measured at 570 nm. Cell viability was calculated as the percentage of absorbance change in drug-treated group compared to vehicle (DMSO) treated control group.

The test system of test [3] is lung cancer cells. The test is described as follows: Anchorage-independent (soft agar) colony formation. The test is classed as cell-based. Particulars: soft agar (FIG. 20). As for the experimental part: Before the experiment, a 1% agar solution made with low-melting agar was placed in a 24-well plate and hardened at room temperature to create a bottom agar. The cells were diluted with medium to seed 2×10^3 cells per well in a 24-well plate. Then, it was mixed with a 1% agar solution to create a final 0.4% agar solution, which was then solidified at room temperature in the plate containing the bottom agar. Medium containing the drug was added on top of the cells mixed in the agar and cultured for 1-3 weeks at 37° C. in a 5% CO2 condition, after which the formed colonies were stained with an MTT solution of 250-500 μg/mL and counted. The colony formation inhibitory effect of the drug was calculated by expressing the change in colony numbers in the drug-treated group compared to the vehicle (DMSO) treated control group as a percentage.

For the compound `C=CCN1c2ccccc2C(=O)N2CCc3c([nH]c4ccc(O)cc34)C21` (stereo not shown) [EV507], in test [1] (H1299, H460, A549, H226B lung cancer cell lines (FIG. 4)), the “expression of Hsp70 protein and Hsp70/Hsp90 client proteins (Akt, Src, and MEK)” value was “clear reduction”. For the same compound, the “expression of Hsp70 and Src and Akt (client proteins of Hsp70/Hsp90)” value in test [1] (Western blot (FIG. 21)) is “decrease”. For the same compound, the inhibition at 0.5 µM in test [2] is over 65%. Also, the anchorage-independent colony formation entry in test [3] is on record as “effectively inhibited”.

The values are drawn from US20240140949A1, “ANTI-CANCER PHARMACEUTICAL COMPOSITION FOR TARGETING HEAT SHOCK PROTEIN 70, CONTAINING INDOLOQUINAZOLIDINE ALKALOID” (SEOUL NATIONAL UNIVERSITY R & DB FOUNDATION, priority 2021, published 2024).
